Data on 18 compounds can be found in patent publication US20170210723A1, “MOLECULES HAVING PESTICIDAL UTILITY, AND INTERMEDIATES, COMPOSITIONS, AND PROCESSES, RELATED THERETO” (priority 2016, published 2017).

What all share (type): in vivo
In data set [1] the test system is Beet Armyworm (Spodoptera exigua). As to the kind of experiment: Bioassays on BAW, 128-well diet tray assay. The following applies: Spodoptera exigua, 168 h; 50 μg/cm^2 on artificial diet, second instar larvae, five to seven days; read-out: BAW % Control (or Mortality) rating.
In data set [2] the test system is Cabbage Looper (Trichoplusia ni). Kind of data set: Bioassays on CL, 128-well diet tray assay. Conditions: Trichoplusia ni, 168 h; 50 μg/cm^2 on artificial diet, second instar larvae, five to seven days; read-out: CL % Control (or Mortality) rating. The gist of the method: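 Second-instar larvae (1–5 per well) were fed diet surface-treated with 50 μg/cm^2 compound, eight wells each. After five to seven days at 25° C. under a 14:10 photoperiod, mortality was scored per well and the eight wells averaged.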

In data set [3] the test system is Yellow Fever Mosquito (Aedes aegypti). As to the kind of experiment: Bioassays on Yellow Fever Mosquito larvae, 96-well plate. Conditions: from 4000 ppm DMSO master plate, about 1 day-old larvae, 3 days. On the procedure: Master plates containing 400 μg of a molecule dissolved in 100 μL of dimethyl sulfoxide (DMSO) (equivalent to a 4000 ppm solution) are used. A master plate of assembled molecules contains 15 μL per well. To this plate, 135 μL of a 90:10 water:acetone mixture is added to each well. A robot (Biomek® NXP Laboratory Automation Workstation) is programmed to dispense 15 μL aspirations from the master plate into an empty 96-well shallow plate (“daughter” plate). There are 6 reps (“daughter” plates) created per master. The created daughter plates are then immediately infested with YFM larvae.
The day before plates are to be treated, mosquito eggs are placed in Millipore water containing liver powder to begin hatching (4 g. into 400 mL). After the daughter plates are created using the robot, they are infested with 220 μL of the liver powder/larval mosquito mixture (about 1 day-old larvae). After plates are infested with mosquito larvae, a non-evaporative lid is used to cover the plate to reduce drying. Plates are held at room temperature for 3 days prior to grading. After 3 days, each well is observed and scored based on mortality. The results are indicated in the table entitled “Table ABC: Biological Results” (See Table Section). AGRICULTURALLY ACCEPTABLE ACID ADDITION SALTS, SALT DERIVATIVES, SOLVATES, ESTER DERIVATIVES, POLYMORPHS, ISOTOPES, AND RADIONUCLIDES

Usually mortality stands for the share of the test organisms that died. With `CCc1cc(/C=C/C(c2cc(Cl)c(Cl)c(Cl)c2)C(F)(F)F)ccc1C(=O)N[C@H](C)CSCC(F)(F)F` (stereo partly drawn) [F54, 2-Ethyl-4-((E)-4,4,4-trifluoro-3-(3,4,5-trichlorophenyl)but-1-en-1-yl)-N—((R)-1-((2,2,2-trifluoroethyl)thio)propan-2-yl)benzamide], the mortality at 50 µg/cm2 in data set [1] and in data set [2] was 50 to 100% each time. The “YFM % Control (or Mortality) rating” value in data set [3] is given as “A (80-100)”.

Turning to `Cc1cc(/C=C/C(c2cc(Br)cc(Br)c2)C(F)(F)F)ccc1C(=O)N[C@H](C)CSCC(F)(F)F` (stereo partly drawn) [F57, 4-((E)-3-(3,5-Dibromophenyl)-4,4,4-trifluorobut-1-en-1-yl)-2-methyl-N—((R)-1-((2,2,2-trifluoroethyl)thio)propan-2-yl)benzamide], the mortality at 50 µg/cm2 in data set [1] and in data set [2] was 50 to 100% in each case. Also, in data set [3], the “YFM % Control (or Mortality) rating” value is “A (80-100)”.

As for `C[C@H](C[S+]([O-])CC(F)(F)F)NC(=O)c1ccc(/C=C/C(c2cc(Br)cc(Br)c2)C(F)(F)F)cc1C(F)(F)F` (stereo partly drawn) [F60, 4-((E)-3-(3,5-Dibromophenyl)-4,4,4-trifluorobut-1-en-1-yl)-N-((2R)-1-((2,2,2-trifluoroethyl)sulfinyl)propan-2-yl)-2-(trifluoromethyl)benzamide], the mortality at 50 µg/cm2 in data set [1] and in data set [2] was 50 to 100% in each case. For the same compound, the “YFM % Control (or Mortality) rating” value in data set [3] was “A (80-100)”.

Turning to `C[C@H](CS(=O)(=O)CC(F)(F)F)NC(=O)c1ccc(/C=C/C(c2cc(Br)cc(Br)c2)C(F)(F)F)cc1C(F)(F)F` (stereo partly drawn) [F61, 4-((E)-3-(3,5-Dibromophenyl)-4,4,4-trifluorobut-1-en-1-yl)-N—((R)-1-((2,2,2-trifluoroethyl)sulfonyl)propan-2-yl)-2-(trifluoromethyl)benzamide], the mortality at 50 µg/cm2 in data set [1] and in data set [2] was 50 to 100% throughout. In addition, the “YFM % Control (or Mortality) rating” value in data set [3] is given as “A (80-100)”.

Turning to `CCSC[C@@H](C)NC(=O)c1ccc(/C=C/C(c2cc(Cl)c(Cl)c(Cl)c2)C(F)(F)F)cc1C(F)(F)F` (stereo partly drawn) [F62, N—((R)-1-(Ethylthio)propan-2-yl)-4-((E)-4,4,4-trifluoro-3-(3,4,5-trichlorophenyl)but-1-en-1-yl)-2-(trifluoromethyl)benzamide], the mortality at 50 µg/cm2 in data set [1] and in data set [2] was 50 to 100% each time. The “YFM % Control (or Mortality) rating” value in data set [3] is listed as “A (80-100)”.

Turning to `O=C(NC1(C[S+]([O-])CC(F)(F)F)CC1)c1ccc(/C=C/C(c2cc(Cl)c(Cl)c(Cl)c2)C(F)(F)F)cc1C(F)(F)F` (stereo not drawn) [F63, (E)-4-(4,4,4-Trifluoro-3-(3,4,5-trichlorophenyl)but-1-en-1-yl)-N-(1-(((2,2,2-trifluoroethyl)sulfinyl)methyl)cyclopropyl)-2-(trifluoromethyl)benzamide], the mortality at 50 µg/cm2 in data set [1] and in data set [2] was 50 to 100% each time. For the same compound, in data set [3], the “YFM % Control (or Mortality) rating” value was “A (80-100)”.

For `C[C@H](CSCC(F)(F)F)NC(=O)c1ccc(/C=C/C(c2cc(Br)cc(Br)c2)C(F)(F)F)cc1Cl` (stereo partly drawn) [F64, 2-Chloro-4-((E)-3-(3,5-dibromophenyl)-4,4,4-trifluorobut-1-en-1-yl)-N—((R)-1-((2,2,2-trifluoroethyl)thio)propan-2-yl)benzamide], the mortality at 50 µg/cm2 in data set [1] and in data set [2] was 50 to 100% each time. The “YFM % Control (or Mortality) rating” value in data set [3] is recorded as “A (80-100)”.

On to `C[C@H](CS(=O)(=O)CC(F)(F)F)NC(=O)c1ccc(/C=C/C(c2cc(Br)cc(Br)c2)C(F)(F)F)cc1Cl` (stereo partly drawn) [F65, 2-Chloro-4-((E)-3-(3,5-dibromophenyl)-4,4,4-trifluorobut-1-en-1-yl)-N—((R)-1-((2,2,2-trifluoroethyl)sulfonyl)propan-2-yl)benzamide], for which the mortality at 50 µg/cm2 in data set [1] and in data set [2] was 50 to 100% in each case. Further, the “YFM % Control (or Mortality) rating” value in data set [3] is listed as “A (80-100)”.

As for `Cc1cc(/C=C/C(c2cc(Br)cc(Br)c2)C(F)(F)F)ccc1C(=O)N[C@H](C)CS(=O)(=O)CC(F)(F)F` (stereo partly drawn) [F66, 4-((E)-3-(3,5-Dibromophenyl)-4,4,4-trifluorobut-1-en-1-yl)-2-methyl-N—((R)-1-((2,2,2-trifluoroethyl)sulfonyl)propan-2-yl)benzamide], the mortality at 50 µg/cm2 in data set [1] and in data set [2] was 50 to 100% each time. For the same compound, the “YFM % Control (or Mortality) rating” value in data set [3] was “A (80-100)”.

Regarding `C[C@H](CSCC(F)(F)F)NC(=O)c1ccc(/C=C/C(c2cc(Cl)c(Cl)c(Cl)c2)C(F)(F)F)cc1Cl` (stereo partly drawn) [F67, 2-Chloro-4-((E)-4,4,4-trifluoro-3-(3,4,5-trichlorophenyl)but-1-en-1-yl)-N—((R)-1-((2,2,2-trifluoroethyl)thio)propan-2-yl)benzamide], the mortality at 50 µg/cm2 in data set [1] and in data set [2] was 50 to 100% throughout. The “YFM % Control (or Mortality) rating” value in data set [3] was “A (80-100)”.

In the case of `CC[S+]([O-])C[C@@H](C)NC(=O)c1ccc(/C=C/C(c2cc(Cl)c(Cl)c(Cl)c2)C(F)(F)F)cc1C(F)(F)F` (stereo partly drawn) [F69, N-((2R)-1-(Ethylsulfinyl)propan-2-yl)-4-((E)-4,4,4-trifluoro-3-(3,4,5-trichlorophenyl)but-1-en-1-yl)-2-(trifluoromethyl)benzamide], the mortality at 50 µg/cm2 in data set [1] and in data set [2] was 50 to 100% each time. The “YFM % Control (or Mortality) rating” value in data set [3] was “A (80-100)”.

`CCCSC[C@@H](C)NC(=O)c1ccc(/C=C/C(c2cc(Cl)c(Cl)c(Cl)c2)C(F)(F)F)cc1C(F)(F)F` (stereo partly drawn) [F70, N—((R)-1-(Propylthio)propan-2-yl)-4-((E)-4,4,4-trifluoro-3-(3,4,5-trichlorophenyl)but-1-en-1-yl)-2-(trifluoromethyl)benzamide]: the mortality at 50 µg/cm2 in data set [1] and in data set [2] was 50 to 100% each time. The “YFM % Control (or Mortality) rating” value in data set [3] is listed as “A (80-100)”.

On to `CCc1cc(/C=C/C(c2cc(Cl)c(Cl)c(Cl)c2)C(F)(F)F)ccc1C(=O)N[C@H](C)CS(=O)(=O)CC(F)(F)F` (stereo partly drawn) [F71, 2-Ethyl-4-((E)-4,4,4-trifluoro-3-(3,4,5-trichlorophenyl)but-1-en-1-yl)-N—((R)-1-((2,2,2-trifluoroethyl)sulfonyl)propan-2-yl)benzamide], for which the mortality at 50 µg/cm2 in data set [1] and in data set [2] was 50 to 100% each time. The “YFM % Control (or Mortality) rating” value in data set [3] is “A (80-100)”.

Consider `C[C@H](C[S+]([O-])CC(F)(F)F)NC(=O)c1ccc(/C=C/C(c2cc(Br)cc(Br)c2)C(F)(F)F)cc1Cl` (stereo partly drawn) [F72, 2-Chloro-4-((E)-3-(3,5-dibromophenyl)-4,4,4-trifluorobut-1-en-1-yl)-N-((2R)-1-((2,2,2-trifluoroethyl)sulfinyl)propan-2-yl)benzamide], for which the mortality at 50 µg/cm2 in data set [1] and in data set [2] was 50 to 100% each time. In addition, the “YFM % Control (or Mortality) rating” value in data set [3] is on record as “A (80-100)”.

Turning to `Cc1cc(/C=C/C(c2cc(Br)cc(Br)c2)C(F)(F)F)ccc1C(=O)N[C@H](C)C[S+]([O-])CC(F)(F)F` (stereo partly drawn) [F73, 4-((E)-3-(3,5-Dibromophenyl)-4,4,4-trifluorobut-1-en-1-yl)-2-methyl-N-((2R)-1-((2,2,2-trifluoroethyl)sulfinyl)propan-2-yl)benzamide], the mortality at 50 µg/cm2 in data set [1] and in data set [2] was 50 to 100% in each case. Moreover, in data set [3], the “YFM % Control (or Mortality) rating” value was “A (80-100)”.

As to `CC(C)CSC[C@@H](C)NC(=O)c1ccc(/C=C/C(c2cc(Cl)c(Cl)c(Cl)c2)C(F)(F)F)cc1C(F)(F)F` (stereo partly drawn) [F85, N—((R)-1-(Isobutylthio)propan-2-yl)-4-((E)-4,4,4-trifluoro-3-(3,4,5-trichlorophenyl)but-1-en-1-yl)-2-(trifluoromethyl)benzamide], the mortality at 50 µg/cm2 in data set [1] and in data set [2] was 50 to 100% each time. The “YFM % Control (or Mortality) rating” value in data set [3] was “A (80-100)”.

Regarding `CC(C)SC[C@@H](C)NC(=O)c1ccc(/C=C/C(c2cc(Cl)c(Cl)c(Cl)c2)C(F)(F)F)cc1C(F)(F)F` (stereo partly drawn) [F86, N-((R)-1-(Isopropylthio)propan-2-yl)-4-((E)-4,4,4-trifluoro-3-(3,4,5-trichlorophenyl)but-1-en-1-yl)-2-(trifluoromethyl) benzamide], the mortality at 50 µg/cm2 in data set [1] and in data set [2] was 50 to 100% throughout. The “YFM % Control (or Mortality) rating” value in data set [3] is “A (80-100)”.

Take `CC(C)C[S+]([O-])C[C@@H](C)NC(=O)c1ccc(/C=C/C(c2cc(Cl)c(Cl)c(Cl)c2)C(F)(F)F)cc1C(F)(F)F` (stereo partly drawn) [F87, N-((2R)-1-(Isobutylsulfinyl)propan-2-yl)-4-((E)-4,4,4-trifluoro-3-(3,4,5-trichlorophenyl)but-1-en-1-yl)-2-(trifluoromethyl)benzamide]: the mortality at 50 µg/cm2 in data set [1] and in data set [2] was 50 to 100% each time. The “YFM % Control (or Mortality) rating” value in data set [3] was “A (80-100)”.
